Measurements reported in patent US10399991B2, “Kv1.3 inhibitors and their medical applications” (4SC AG, priority 2015, dated 2019).

Key:
[1] = target: Kv1.3 (Homo sapiens (Human), UniProt P22001); assay: Patch-clamp assay for inhibitory activity on Kv1.3 (whole cell patch-clamp recording); format: cell-based; details: n≥2 per concentration
Description: Patch-Clamp Assay for Inhibitory Activity on Kv1.3
For a description of a Kv1.3 patch-clamp assay, see Grissmer et al., Mol. Pharmacol. 1994, 45, 1227; whole cell patch-clamp recording was performed with n≥2 individual experiments at each compound concentration using different cells. Three or more different concentrations were determined per dose response curve.

[2] = system: Peripheral blood mononuclear cells (PBMC); assay: T cell proliferation assay (anti-CD3 activated PBMC, BrdU based cell proliferation ELISA); details: human PBMC, TRAM-34 (5 μM), 50 ng/ml anti-CD3, 48 hours; read-out: IC50(BrdU incorporation)
Description: T cell proliferation assay (in analogy to Pegoraro et al., Bioorg. Med. Chem. Lett. 2009, 19, 2299)
Peripheral blood mononuclear cells (PBMC) from healthy human donors were isolated by centrifugation over a density gradient in an aqueous solution, comprising a high molecular weight polysaccharide and sodium diatrizionate, and having a density of 1.077±0.001 (Ficoll-Hypaque by Sigma-Aldrich, Germany; according to manufacturer's instructions). Purified PBMC were washed twice with PBS and resuspended in RPMI1640 culture medium (Gibco—Life Technologies) supplemented with 10% heat inactivated fetal calf serum, 1.5 mM L-glutamine, 100 U penicillin/ml, and 100 […] (all from PAA—GE Healthcare). For stimulation, PBMC were seeded at 1×10^5 cells/well, incubated with TRAM-34 (5 μM) and the test compounds for 4 h and activated with 50 ng/ml anti-CD3 (from eBioscience). After 48 hours proliferation was measured using a BrdU based cell proliferation ELISA according to the manual.

[3] = system: female Dark Agouti rats; assay: Pristane-induced Arthritis (PIA) model; format: in vivo, rat; details: for Arthritic Index (AI): maximum AI=16, controls AI around 14; for amelioration of arthritis: Example 53 60 mg/kg p.o. sid, Example 34 45 mg/kg p.o. bid
Description: Pristane-induced Arthritis (PIA) Model:
Arthritis was induced in female Dark Agouti rats by intradermal injection of 150 μL/rat pristane into the base of the tail on DAY0, according to Vingsbo et al., Am. J. Pathol. 1996, 149, 1675. Compound treatment was started on DAY16 and continued until DAY30, dosing Example 53 at 60 mg/kg, p.o., sid, and Example 34 at 45 mg/kg, p.o., bid, each in a lipophilic formulation. As a positive control, methotrexate (MTX) was dosed i.p., sid, with 0.05 mg/kg, also starting DAY16. Arthritis development was monitored daily by a macroscopic scoring system for the four limbs ranging from 0 to 4 (0=no visible effects of arthritis; 1=edema and/or erythema of one digit; 2=edema and/or erythema of two joints; 3=edema and/or erythema of more than two joints; 4=severe arthritis of the entire paw and digits, associated with ankylosis and deformity of the paw.), resulting in an Arthritic Index (AI) reflecting the sum of scores of all 4 limbs per rat (maximum AI=16).

Sequence of Kv1.3 (P22001 whole entry): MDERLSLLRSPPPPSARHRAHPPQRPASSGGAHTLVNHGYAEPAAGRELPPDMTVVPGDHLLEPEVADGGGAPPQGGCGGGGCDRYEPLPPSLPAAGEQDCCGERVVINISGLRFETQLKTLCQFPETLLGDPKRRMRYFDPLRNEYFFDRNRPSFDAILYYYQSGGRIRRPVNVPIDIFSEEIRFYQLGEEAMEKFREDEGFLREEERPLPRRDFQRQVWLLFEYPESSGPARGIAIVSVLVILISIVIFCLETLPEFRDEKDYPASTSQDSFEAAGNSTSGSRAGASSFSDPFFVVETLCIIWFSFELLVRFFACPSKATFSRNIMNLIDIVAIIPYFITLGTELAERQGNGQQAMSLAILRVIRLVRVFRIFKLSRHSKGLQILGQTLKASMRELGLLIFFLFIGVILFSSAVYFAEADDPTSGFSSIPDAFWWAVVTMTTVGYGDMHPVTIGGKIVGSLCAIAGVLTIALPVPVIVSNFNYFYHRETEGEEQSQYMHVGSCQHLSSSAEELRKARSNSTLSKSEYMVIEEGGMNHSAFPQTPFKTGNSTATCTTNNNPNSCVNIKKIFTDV

| IC50 [1] [µM] | Structure (SMILES) | IC50 [2] [µM] | further results |
| --- | --- | --- | --- |
| ≤ 0.5 | Cc1c(-c2cccnc2)c2cc3c(C)coc3c(C)c2[nH]c1=O [Example 54, 3,6,9-trimethyl-5-(pyridin-3-yl)furo[3,2-g]quinolin-7(8H)-one] | 3.1 to 15 | – |
| ≤ 0.5 | Cc1c(-c2ccccc2Cl)c2cc3c(C)coc3c(C)c2oc1=O [Example 11, 5-(2-chlorophenyl)-3,6,9-trimethyl-7H-furo[3,2-g]chromen-7-one] | 1.3 to 3 | – |
| 0.501 to 1.5 | Cc1csc2c(C)c3oc(=O)cc(-c4ccccc4)c3cc12 [Example 37, 6,9-dimethyl-4-phenyl-2H-thieno[3,2-g]chromen-2-one] | 3.1 to 15 | – |
| ≤ 0.5 | Cc1c(-c2ccccc2F)c2cc3c(C)coc3c(C)c2[nH]c1=O [Example 30, 5-(2-fluorophenyl)-3,6,9-trimethylfuro[3,2-g]quinolin-7(8H)-one] | 1.3 to 3 | – |
| ≤ 0.5 | Cc1c(-c2ccccc2F)c2cc3c(C)coc3c(C)c2oc1=O [Example 5, 5-(2-fluorophenyl)-3,6,9-trimethyl-7H-furo[3,2-g]chromen-7-one] | 1.3 to 3 | – |
| ≤ 0.5 | Cc1c(-c2ccccc2)c2cc3c(C)coc3c(C)c2n(C)c1=O [Example 34, 3,6,8,9-tetramethyl-5-phenylfuro[3,2-g]quinolin-7(8H)-one] | 1.3 to 3 | Arthritic Index (AI) ([3]; 45 mg/kg, p.o., bid, DAY16 to DAY30): around 9.1; amelioration of arthritis ([3]; DAY16 to DAY30): significant amelioration of arthritis |
| 0.501 to 1.5 | Cc1c(-c2cccnc2)c2cc3c(C)coc3c(C)c2n(C)c1=O [Example 55, 3,6,8,9-tetramethyl-5-(pyridin-3-yl)furo[3,2-g]quinolin-7(8H)-one] | 3.1 to 15 | – |
| ≤ 0.5 | Cc1c(-c2ccccc2)c2cc3c(C)coc3nc2n(C)c1=O [Example 49, 3,6,8-trimethyl-5-phenylfuro[2,3-b][1,8]naphthyridin-7(8H)-one] | 3.1 to 15 | – |
| ≤ 0.5 | Cc1c(-c2ccccc2)c2cc3c(C)coc3c(C)c2[nH]c1=O [Example 31, 3,6,9-trimethyl-5-phenylfuro[3,2-g]quinolin-7(8H)-one] | ≤ 1.2 | – |
| 0.501 to 1.5 | COc1ncccc1-c1c(C)c(=O)oc2c(C)c3occ(C)c3cc12 [Example 62, 5-(2-methoxypyridin-3-yl)-3,6,9-trimethyl-7H-furo[3,2-g]chromen-7-one] | – | – |
| 1.5 to 3 | Cc1c(-c2cccnc2)c2cc3c(C)noc3c(C)c2n(C)c1=O [Example 56, 3,6,8,9-tetramethyl-5-(pyridin-3-yl)isoxazolo[4,5-g]quinolin-7(8H)-one] | – | – |
| 1.5 to 3 | Cc1coc2c(C)c3oc(=O)cc(-c4cccnc4)c3cc12 [Example 44, 3,9-dimethyl-5-(pyridin-3-yl)-7H-furo[3,2-g]chromen-7-one] | – | – |
| 1.5 to 3 | Cc1noc2c(C)c3oc(=O)cc(-c4ccccc4)c3cc12 [Example 50, 3,9-dimethyl-5-phenyl-7H-chromeno[6,7-d]isoxazol-7-one] | – | – |

More lines, now with the values behind:

| Structure (SMILES) | IC50 [1] [µM] | IC50 [2] [µM] | further results |
| --- | --- | --- | --- |
| CCOc1ccccc1-c1c(C)c(=O)oc2c(C)c3occ(C)c3cc12 [Example 10, 5-(2-ethoxyphenyl)-3,6,9-trimethyl-7H-furo[3,2-g]chromen-7-one] | ≤ 0.5 | ≤ 1.2 | – |
| COc1ccccc1-c1cc(=O)oc2c(C)c3occ(C)c3cc12 [Example 1, 5-(2-methoxyphenyl)-3,9-dimethyl-7H-furo[3,2-g]chromen-7-one] | ≤ 0.5 | 3.1 to 15 | – |
| Cc1coc2c(C)c3[nH]c(=O)c(Br)c(-c4ccccc4)c3cc12 [Example 26, 6-bromo-3,9-dimethyl-5-phenylfuro[3,2-g]quinolin-7(8H)-one] | ≤ 0.5 | ≤ 1.2 | – |
| CN(Cc1cnc2nc(N)nc(N)c2n1)c1ccc(C(=O)N[C@@H](CCC(=O)O)C(=O)O)cc1 [MTX, methotrexate, reference compound] | – | – | Arthritic Index (AI) ([3]; 0.05 mg/kg, i.p., sid, from DAY16): ~8.7 |
| Cc1c(-c2cccnc2)c2cc3c(C)coc3c(C)c2oc1=O [Example 53, 3,6,9-trimethyl-5-(pyridin-3-yl)-7H-furo[3,2-g]chromen-7-one] | ≤ 0.5 | 1.3 to 3 | Arthritic Index (AI) ([3]; 60 mg/kg, p.o., sid, DAY16 to DAY30): around 10.4; amelioration of arthritis ([3]; DAY16 to DAY30): significant amelioration of arthritis |
| COc1ccccc1-c1c(C)c(=O)oc2c(C)c3occ(C)c3cc12 [Example 7, 5-(2-methoxyphenyl)-3,6,9-trimethyl-7H-furo[3,2-g]chromen-7-one] | ≤ 0.5 | 1.3 to 3 | – |
| Cc1c(-c2ccccc2)c2cc3c(C)coc3nc2oc1=O [Example 25, 3,6-dimethyl-5-phenyl-7H-furo[2,3-b]pyrano[3,2-e]pyridin-7-one] | ≤ 0.5 | 1.3 to 3 | – |
| Cc1c(-c2ccccc2Cl)c2cc3c(C)coc3c(C)c2[nH]c1=O [Example 40, 5-(2-chlorophenyl)-3,6,9-trimethylfuro[3,2-g]quinolin-7(8H)-one] | ≤ 0.5 | ≤ 1.2 | – |
| Cc1c(-c2ccccc2)c2cc3c(C)coc3c(C)c2oc1=O [Example 9, 3,6,9-trimethyl-5-phenyl-7H-furo[3,2-g]chromen-7-one] | ≤ 0.5 | ≤ 1.2 | – |
| CCc1coc2c(C)c3oc(=O)c(C)c(-c4ccccc4)c3cc12 [Example 16, 3-ethyl-6,9-dimethyl-5-phenyl-7H-furo[3,2-g]chromen-7-one] | ≤ 0.5 | ≤ 1.2 | – |
| Cc1c2oc(=O)cc(-c3ccccc3)c2cc2c(C3CC3)coc12 [Example 41, 3-cyclopropyl-9-methyl-5-phenyl-7H-furo[3,2-g]chromen-7-one] | ≤ 0.5 | 1.3 to 3 | – |
| Cc1coc2cc3oc(=O)cc(-c4ccccc4Cl)c3cc12 [Example 21, 5-(2-chlorophenyl)-3-methyl-7H-furo[3,2-g]chromen-7-one] | 0.501 to 1.5 | – | – |
| Cc1c(-c2ccccc2)c2cc3c(C)csc3c(C)c2oc1=O [Example 43, 3,6,9-trimethyl-4-phenyl-2H-thieno[3,2-g]chromen-2-one] | ≤ 0.5 | 1.3 to 3 | – |
